Experimental data as given in patent EP4778920A1, “INDAZOLONE COMPOUND, PREPARATION METHOD THEREFOR, PHARMACEUTICAL COMPOSITION, AND USE” (Shanghai Institute of Materia Medica, Chinese Academy of …, priority 2023, dated 2025).

What was measured:
[1] = tested on: MM.1S cells; assay: MM.1S cell proliferation inhibition (MTS assay); assay type: cell-based; settings: Homo sapiens, MM1.S, 168 h, 7 days incubation, read-out: MM1.S (IC50, Inhibitory Activity of Compounds on MM.1S Cell Proliferation)
Procedure: The cell concentration was diluted according to a 7-day incubation period, and 180 µL of cell suspension was added to each well of a 96-well plate, with 20,000 cells per well. […] The test compounds were prepared from a 10 mM stock solution and serially diluted in a 5-fold gradient, and 20 µL of the diluted solution was added to each compound-treated well (final DMSO concentration also 0.2%). The cells were incubated in a 37 °C, 5% CO2 incubator for 7 days. After incubation, the reaction solution was prepared according to the MTS assay kit instructions (Promega, G5430), and 20 µL was added to each well. The plate was incubated at 37 °C with 5% CO2 for 3-4 hours. The absorbance at 490 nm was measured using a microplate reader, and the absorbance at 690 nm was used as the background value. […] The IC50 values for cell proliferation inhibition were determined using GraphPad Prism 5.0. Each experiment was repeated three times, and three parallel replicates were performed in each experiment to calculate the mean value and standard deviation.
Inhibitory Activity of Compounds on MM.1S Cell Proliferation

[2] = tested on: Mino cells; assay: Mino cell proliferation inhibition (MTS assay); assay type: cell-based; settings: Homo sapiens, 72 h, 3 days incubation, read-out: Mino (IC50, Inhibitory Activity of Compounds on Mino Cell Proliferation)
Procedure: The cell concentration was diluted according to a 3-day incubation period, and 90 µL of cell suspension was added to each well of a 96-well plate, resulting in 8,000 cells per well. […] The test compounds were prepared from a 10 mM stock solution and serially diluted in a five-fold gradient. Similarly, 10 µL of the diluted compound solution was added to each compound-treated well (final DMSO concentration 0.2%).
The cells were incubated in a 37 °C, 5% CO2 incubator for 3 days. After incubation, the reaction solution was prepared according to the MTS assay kit instructions (Promega, G5430), and 20 µL was added to each well. The plate was further incubated at 37 °C with 5% CO2 for 3-4 hours. The absorbance at 490 nm was measured using a microplate reader, and the absorbance at 690 nm was used as the background value. The final raw data were calculated as OD490 - OD690. […] The IC50 values for cell proliferation inhibition were determined using GraphPad Prism 5.0. Each experiment was repeated three times, and three parallel replicates were performed in each experiment to calculate the mean value and standard deviation.
Table 2. Inhibitory Activity of Compounds on Mino Cell Proliferation

[3] = tested on: MV-4-11 cells; assay: MV-4-11 cell proliferation inhibition (MTS assay); assay type: cell-based; settings: Homo sapiens, MV4-11, 168 h, 7 days incubation, MTS, read-out: MV-411 (IC50, Inhibitory Activity of Compounds on MV-4-11 Cell Proliferation)
Procedure: MV-4-11 cells were cultured in IMDM medium supplemented with 10% fetal bovine serum and collected. The cell concentration was diluted according to a 7-day incubation period, and 180 µL of cell suspension was added to each well of a 96-well plate, resulting in 2,000 cells per well. […] The test compounds were prepared from a 10 mM stock solution and serially diluted in a five-fold gradient, and 20 µL of the diluted compound solution was added to each compound-treated well (final DMSO concentration 0.2%). The cells were incubated in a 37 °C, 5% CO2 incubator for 7 days. After incubation, the reaction solution was prepared according to the MTS assay kit instructions (Promega, G5430), and 20 µL was added to each well. The plate was further incubated at 37 °C with 5% CO2 for 3-4 hours. The absorbance at 490 nm was measured using a microplate reader, and the absorbance at 690 nm was used as the background value. The final raw data were calculated as OD490 - OD690. […] The IC50 values for cell proliferation inhibition were determined using GraphPad Prism 5.0. Each experiment was repeated three times, and three parallel replicates were performed in each experiment to calculate the mean value and standard deviation.
Table 3. Inhibitory Activity of Compounds on MV-4-11 Cell Proliferation

[4] = biological target: CRBN/DDB1 (Homo sapiens, UniProt Q96SW2); assay: CRBN/DDB1 binding TR-FRET assay; settings: read-out: AVE_Inhibition% (1 µM)
Sequence of CRBN/DDB1 (Q96SW2 whole entry, species assumed): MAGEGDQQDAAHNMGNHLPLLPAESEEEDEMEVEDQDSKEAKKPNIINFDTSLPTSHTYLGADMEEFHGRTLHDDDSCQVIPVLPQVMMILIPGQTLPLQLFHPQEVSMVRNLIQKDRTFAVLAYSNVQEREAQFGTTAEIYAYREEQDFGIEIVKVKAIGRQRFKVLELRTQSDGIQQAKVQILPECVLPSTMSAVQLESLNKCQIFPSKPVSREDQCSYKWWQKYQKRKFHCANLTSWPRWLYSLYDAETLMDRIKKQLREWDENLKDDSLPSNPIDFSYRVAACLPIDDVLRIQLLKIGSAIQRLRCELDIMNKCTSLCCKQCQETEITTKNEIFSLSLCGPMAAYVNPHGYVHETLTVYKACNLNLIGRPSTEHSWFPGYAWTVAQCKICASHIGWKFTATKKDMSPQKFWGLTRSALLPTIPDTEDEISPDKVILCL
Sequence of CRBN/DDB1 (Q16531 whole entry partner, species assumed): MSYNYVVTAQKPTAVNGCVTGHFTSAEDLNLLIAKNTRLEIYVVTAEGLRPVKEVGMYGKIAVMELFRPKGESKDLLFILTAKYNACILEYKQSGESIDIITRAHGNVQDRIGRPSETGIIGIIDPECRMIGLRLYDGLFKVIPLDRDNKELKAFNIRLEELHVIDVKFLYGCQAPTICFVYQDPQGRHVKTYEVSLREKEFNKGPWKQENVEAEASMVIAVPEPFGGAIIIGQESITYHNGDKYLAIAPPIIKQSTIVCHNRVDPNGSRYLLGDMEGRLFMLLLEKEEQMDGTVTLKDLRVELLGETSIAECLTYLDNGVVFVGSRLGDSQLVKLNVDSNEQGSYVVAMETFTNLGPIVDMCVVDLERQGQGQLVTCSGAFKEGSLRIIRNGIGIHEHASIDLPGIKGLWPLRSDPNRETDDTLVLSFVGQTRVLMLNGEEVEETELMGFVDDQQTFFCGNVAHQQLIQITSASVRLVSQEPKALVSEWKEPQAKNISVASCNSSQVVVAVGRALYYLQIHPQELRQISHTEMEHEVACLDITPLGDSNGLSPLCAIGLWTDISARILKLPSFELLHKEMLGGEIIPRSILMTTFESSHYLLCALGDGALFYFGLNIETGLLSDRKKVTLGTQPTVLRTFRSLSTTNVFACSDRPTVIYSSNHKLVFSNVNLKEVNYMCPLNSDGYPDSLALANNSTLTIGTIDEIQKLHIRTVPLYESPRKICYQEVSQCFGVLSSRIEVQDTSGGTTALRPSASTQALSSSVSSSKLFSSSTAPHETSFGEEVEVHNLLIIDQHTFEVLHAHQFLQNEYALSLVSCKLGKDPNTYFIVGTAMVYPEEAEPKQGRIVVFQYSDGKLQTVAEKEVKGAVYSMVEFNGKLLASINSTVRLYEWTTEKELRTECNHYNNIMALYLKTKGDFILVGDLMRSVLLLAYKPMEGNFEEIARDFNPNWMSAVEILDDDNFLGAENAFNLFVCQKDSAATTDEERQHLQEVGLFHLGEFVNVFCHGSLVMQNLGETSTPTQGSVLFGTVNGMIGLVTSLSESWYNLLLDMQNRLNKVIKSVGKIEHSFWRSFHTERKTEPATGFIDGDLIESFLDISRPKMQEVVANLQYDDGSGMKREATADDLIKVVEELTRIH
Procedure: • 1. 0.1 µL of the reference solution was added to a 384-well assay plate. The final detection concentration was 100 µM, followed by 3-fold serial dilution for 10 points. • 2. 2.5 µL of CRBN/DDB1 was added to the 384-well plate and centrifuged at 1000 rpm for 1 minute. • 3. 2.5 µL of Thalidomide-BODIPY was added to the plate, centrifuged at 1000 rpm for 1 minute, and incubated at 25 °C for 15 minutes. • 4. 5 µL of His-Tb was added to the plate, centrifuged at 1000 rpm for 1 minute, and incubated at 25 °C for 60 minutes. • 5. The TR-FRET signal was measured using a BMG plate reader with a fluorescence ratio of 520/490 nm.
Table 4. Inhibition Rate of Compounds on CRBN/DDB1 Binding

| IC50 [1] | IC50 [3] | inhibition at 1 µM [4] | Compound | IC50 [2] |
| --- | --- | --- | --- | --- |
| < 0.2 µM | > 20 µM | 50 to 90% | O=C1CC[C@H](n2[nH]c3c(OCc4ccc(CN5CCOCC5)cc4)cccc3c2=O)C(=O)N1 [Compound D1, (S)-3-(7-((4-(Morpholinomethyl)benzyl)oxy)-3-oxo-1,3-dihydro-2H-indazol-2-yl)piperidine-2,6-dione] | 1 to 10 µM |
| < 0.2 µM | < 0.2 µM | > 90% | N#Cc1ccc(N2CCN(Cc3ccc(COc4cccc5c(=O)n([C@H]6CCC(=O)NC6=O)[nH]c45)cc3)CC2)c(F)c1 [Compound D2, (S)-4-(4-(4-(((2-(2,6-dioxopiperidin-3-yl)-3-oxo-2,3-dihydro-1H-indazol-7-yl)oxy)methyl)benzyl)piperazin-1-yl)-3-fluorobenzonitrile] | < 0.2 µM |
| < 0.2 µM | 1 to 20 µM | > 90% | N#Cc1ccc(N2CCN(C(=O)c3ccc(COc4cccc5c(=O)n(C6CCC(=O)NC6=O)[nH]c45)cc3)CC2)c(F)c1 (centres unmarked) [Compound D4] | < 0.2 µM |
| < 0.2 µM | 1 to 20 µM | 50 to 90% | Cc1ccc(N2CCN(C(=O)c3ccc(COc4cccc5c(=O)n(C6CCC(=O)NC6=O)[nH]c45)cc3)CC2)c(F)c1 (centres unmarked) [Compound D5, 3-(7-((4-(4-(2-Fluoro-4-methylphenyl)piperazine-1-carbonyl)benzyl)oxy)-3-oxo-1,3-dihydro-2H-indazol-2-yl)piperidine-2,6-dione] | < 0.2 µM |
| < 0.2 µM | < 0.2 µM | > 90% | O=C1CCC(n2[nH]c3c(OCc4ccc(CN5CCN(c6ccc(F)cc6F)CC5)cc4)cccc3c2=O)C(=O)N1 (centres unmarked) [Compound D7, 3-(7-((4-((4-(2,4-difluorophenyl)piperazin-1-yl)methyl)benzyl)oxy)-3-oxo-1,3-dihydro-2H-indazol-2-yl)piperidine-2,6-dione] | < 0.2 µM |
| > 10 µM | > 20 µM | – | Cc1ccc(CNC(=O)c2ccc3c(=O)n(C4CCC(=O)NC4=O)[nH]c3c2)cc1 (centres unmarked) [Compound D36, 2-(2,6-dioxopiperidin-3-yl)-N-(4-methylbenzyl)-3-oxo-2,3-dihydro-1H-indazole-6-carboxamide] | > 10 µM |
| > 10 µM | > 20 µM | – | O=C1CCC(n2[nH]c3cc(C(=O)N[C@H](c4ccccc4)C(F)(F)F)ccc3c2=O)C(=O)N1 (stereo partly drawn) [Compound D37, 2-(2,6-dioxopiperidin-3-yl)-3-oxo-N-((R)-2,2,2-trifluoro-1-phenylethyl)-2,3-dihydro-1H-indazole-6-carboxamide] | > 10 µM |
| > 10 µM | > 20 µM | – | C[C@H](NC(=O)c1ccc2c(=O)n(C3CCC(=O)NC3=O)[nH]c2c1)c1ccc(F)cc1F (stereo partly drawn) [Compound D38, N-((S)-1-(2,4-difluorophenyl)ethyl)-2-(2,6-dioxopiperidin-3-yl)-3-oxo-2,3-dihydro-1H-indazole-6-carboxamide] | > 10 µM |
| > 10 µM | > 20 µM | – | C[C@H](NC(=O)c1ccc2c(=O)n(C3CCC(=O)NC3=O)[nH]c2c1)c1cccc(Cl)c1 (stereo partly drawn) [Compound D39, N-((S)-1-(3-chlorophenyl)ethyl)-2-(2,6-dioxopiperidin-3-yl)-3-oxo-2,3-dihydro-1H-indazole-6-carboxamide] | > 10 µM |
| > 10 µM | > 20 µM | – | Cc1cccc2c1OCC[C@H]2NC(=O)c1ccc2c(=O)n(C3CCC(=O)NC3=O)[nH]c2c1 (stereo partly drawn) [Compound D42, 2-(2,6-dioxopiperidin-3-yl)-N-((R)-8-methylchroman-4-yl)-3-oxo-2,3-dihydro-1H-indazole-6-carboxamide] | > 10 µM |

| Compound | IC50 [1] | IC50 [3] | inhibition at 1 µM [4] | IC50 [2] |
| --- | --- | --- | --- | --- |
| O=C1CCC(n2[nH]c3cc(C(=O)N[C@@H]4CCOc5ccc(Cl)cc54)ccc3c2=O)C(=O)N1 (stereo partly drawn) [Compound D41, N-((R)-6-chlorochroman-4-yl)-2-(2,6-dioxopiperidin-3-yl)-3-oxo-2,3-dihydro-1H-indazole-6-carboxamide] | > 10 µM | > 20 µM | – | > 10 µM |
